The test system of series [1] is Poly I:C-induced ICAM-1 expression in BEAS2B cells. Description: Poly I:C-induced ICAM-1 expression in BEAS2B cells. The format is cell-based. The note with it: Homo sapiens, BEAS-2B, read-out: Poly IC induced ICAM1 in BEAS2B IC50. The protocol: Poly I:C is used in these studies as a simple, RNA virus mimic. Poly I:C-Oligofectamine mixture (1 μg/mL Poly I:C, ±2% Oligofectamine, 25 uL) (Invivogen Ltd., San Diego, Calif., and Invitrogen, Carlsbad, Calif., respectively) is transfected into BEAS2B cells (human bronchial epithelial cells, ATCC). Cells are pre-incubated with final concentrations of test compounds for 2 hr and the level of ICAM1 expression on the cell surface is determined by cell-based ELISA. At a time point 18 hr after poly I:C transfection, cells are fixed with 4% formaldehyde in PBS (100 μL) and then endogenous peroxidase is quenched by the addition of washing buffer (100 μL, 0.05% Tween in PBS: PBS-Tween) containing 0.1% sodium azide and 1% hydrogen peroxide. Cells are washed with wash-buffer (3×200 μL). and after blocking the wells with 5% milk in PBS-Tween (100 μL) for 1 hr, the cells are incubated with anti-human ICAM-1 antibody (50 μL) (Cell Signaling Technology, Danvers, Mass.) in 1% BSA PBS overnight at 4° C.
The cells are washed with PBS-Tween (3×200 μL) and incubated with the secondary antibody (100 μL) (HRP-conjugated anti-rabbit IgG, Dako Ltd., Glostrup, Denmark). The cells are then incubated with of substrate (50 μL) for 2-20 min, followed by the addition of stop solution (50 μL, 1N H2SO4). The ICAM-1 signal is detected by reading and reading the absorbance at 450 nm against a reference wavelength of 655 nm using a spectrophotometer. The cells are then washed with PBS-Tween (3×200 μL) and total cell numbers in each well are determined by reading absorbance at 595 nm after Crystal Violet staining (50 μL of a 2% solution in PBS) and elution by 1% SDS solution (100 μL) in distilled water. The measured OD 450-655 readings are corrected for cell number by dividing with the OD595 reading in each well.

For series [2], the system named is LPS-induced IL-8 release in d-U937 cells. As to the kind of experiment: LPS-induced IL-8 release in d-U937 cells. The series is classed as cell-based. The note with it: Homo sapiens, dU937, read-out: LPS Induced Release of Cytokine in d-937 Cells IL-8 IC50. Here is the method:
(§1) U937 cells, a human monocytic cell line, are differentiated into macrophage-type cells by incubation with PMA (100 ng/mL) for 48 to 72 hr. Cells are pre-incubated with final concentrations of test compound for 2 hr and are then stimulated with LPS (0.1 μg/mL) (from E. coli: O111:B4, Sigma) for 4 hr. The supernatant is collected for determination of TNFα and IL-8 concentrations by sandwich ELISA (Duo-set, R&D systems). […] The relative 50% effective concentration (REC50) is determined from the resultant concentration-response curve. The inhibition of IL-8 production is calculated at each concentration of test compound by comparison with vehicle control. […] (b) LPS-Induced TNFα/IL-8 Release in PBMC Cells

Series [3] has as its system LPS-induced TNFα release in d-U937 cells. As to the kind of experiment: LPS-induced TNFα release in d-U937 cells. The series is classed as cell-based. The note with it: Homo sapiens, dU937, relative to 10 μg/mL BIRB796, read-out: LPS Induced Release of Cytokine in d-937 Cells TNFα REC50. The protocol: as §1
Another series relates to d-U937 cells. As to the kind of experiment: Cell viability: MTT assay. The note with it: 1 μg/mL. The format is cell-based, human. Here is the method:
Differentiated U937 cells are pre-incubated with each test compound (final concentration 1 μg/mL or 10 μg/mL in 200 μL media indicated below) under two protocols: the first for 4 hr in 5% FCS RPMI1640 media and the second in 10% FCS RPMI1640 media for 24 h. The supernatant is replaced with new media (200 μL) and MTT stock solution (10 μL, 5 mg/mL) is added to each well. After incubation for 1 hr the media are removed, DMSO (200 μL) is added to each well and the plates are shaken lightly for 1 hr prior to reading the absorbance at 550 nm. The percentage loss of cell viability is calculated for each well relative to vehicle (0.5% DMSO) treatment. Consequently an apparent increase in cell viability for drug treatment relative to vehicle is tabulated as a negative percentage.
(Tetrazolium assays rely on reduction of a dye to a coloured formazan, in cell work by metabolically active cells.)

Another series has as its target Syk (Homo sapiens (Human), UniProt P43405). As to the kind of experiment: Syk enzyme inhibition (FRET, Z-LYTE). The format is biochemical. The protocol: (§2) The enzyme inhibitory activities of compounds disclosed herein are determined by FRET using synthetic peptides labelled with both donor and acceptor fluorophores (Z-LYTE, Invitrogen Ltd., Paisley, UK).
(§3) The relevant enzyme (3000 ng/mL or 2000 ng/mL respectively, 2.5 μL) is incubated with the test compound (either 4 μg/mL, 0.4 μg/mL, 0.04 μg/mL, or 0.004 μg/mL, 2.5 μL each) for 2 hr at RT. The FRET peptides (8 μM, 2.5 μL), and appropriate ATP solutions (2.5 μL, 800 μM for c-Src, and 60 μM ATP for Syk) are then added to the enzymes/compound mixtures and incubated for 1 hr. Development reagent (protease, 5 μL) is added for 1 hr prior to detection in a fluorescence microplate reader (Varioskan® Flash, ThermoFisher Scientific).
(§4) In all cases, the site-specific protease cleaves non-phosphorylated peptide only and eliminates the FRET signal. Phosphorylation levels of each reaction are calculated using the ratio of coumarin emission (donor) over fluorescein emission (acceptor), for which low ratios indicate high phosphorylation and high ratios indicate low phosphorylation levels.

For the next series, the target named is cSrc (Homo sapiens (Human), UniProt P12931). Description: c-Src enzyme inhibition (FRET, Z-LYTE). The format is biochemical. The protocol: as §2, §3, §4
Another series addresses p38 MAPKα (Homo sapiens (Human), UniProt Q16539). Description: p38 MAPKα enzyme inhibition (FRET, Z-LYTE). The series is classed as biochemical. The protocol: as §2
The inhibitory activities of test compounds against the p38 MAPKα isoform (MAPK14: Invitrogen), are evaluated indirectly by determining the level of activation/phosphorylation of the down-stream molecule, MAPKAP-K2. The p38 MAPKα protein (80 ng/mL, 2.5 μL) is mixed with the test compound (2.5 μL of either 4 μg/mL, 0.4 μg/mL, 0.04 μg/mL or 0.004 μg/mL) for 2 hr at RT. […] The mixture is incubated for 1 hr at RT. Development reagent (protease, 5 μL) is added for 1 hr prior to detection in a fluorescence microplate reader (Varioskan® Flash, ThermoFisher Scientific).
as §4

The target in the next series is GSK3α (Homo sapiens (Human), UniProt P49840). As to the kind of experiment: GSK 3α enzyme inhibition (FRET, Z-LYTE). The format is biochemical. The protocol:
as §2
The inhibitory activities of compounds of the invention against the GSK 3α enzyme isoform (Invitrogen), are evaluated by determining the level of activation/phosphorylation of the target peptide. The GSK3-α protein (500 ng/mL, 2.5 μL) is mixed with the test compound (2.5 μL at either 4 μg/mL, 0.4 μg/mL, 0.04 μg/mL, or 0.004 μg/mL) for 2 hr at RT. The FRET peptide (8 μM, 2.5 μL), which is a phosphorylation target for GSK3α, and ATP (40 μM, 2.5 μL) are then added to the enzyme/compound mixture and the resulting mixture incubated for 1 hr. Development reagent (protease, 5 μL) is added for 1 hr prior to detection in a fluorescence microplate reader (Varioskan® Flash, ThermoFisher Scientific).
as §4

The text below walks through data of US9249125B2, “Pyrazole derivatives as p38 MAP inhibitors” (RESPIVERT LIMITED, priority 2012, dated 2016).

Chain of p38 MAPKα (Q16539 whole entry, canonical isoform): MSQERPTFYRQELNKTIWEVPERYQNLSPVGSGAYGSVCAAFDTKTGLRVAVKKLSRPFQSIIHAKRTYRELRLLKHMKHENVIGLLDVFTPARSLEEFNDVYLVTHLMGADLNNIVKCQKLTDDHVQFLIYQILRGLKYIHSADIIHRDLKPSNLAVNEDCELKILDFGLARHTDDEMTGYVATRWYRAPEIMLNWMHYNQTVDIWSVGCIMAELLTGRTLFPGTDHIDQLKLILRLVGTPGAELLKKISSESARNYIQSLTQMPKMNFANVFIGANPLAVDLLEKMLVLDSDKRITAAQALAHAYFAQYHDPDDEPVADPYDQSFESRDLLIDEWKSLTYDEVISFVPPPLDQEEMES
Chain of cSrc (P12931 whole entry, looked up): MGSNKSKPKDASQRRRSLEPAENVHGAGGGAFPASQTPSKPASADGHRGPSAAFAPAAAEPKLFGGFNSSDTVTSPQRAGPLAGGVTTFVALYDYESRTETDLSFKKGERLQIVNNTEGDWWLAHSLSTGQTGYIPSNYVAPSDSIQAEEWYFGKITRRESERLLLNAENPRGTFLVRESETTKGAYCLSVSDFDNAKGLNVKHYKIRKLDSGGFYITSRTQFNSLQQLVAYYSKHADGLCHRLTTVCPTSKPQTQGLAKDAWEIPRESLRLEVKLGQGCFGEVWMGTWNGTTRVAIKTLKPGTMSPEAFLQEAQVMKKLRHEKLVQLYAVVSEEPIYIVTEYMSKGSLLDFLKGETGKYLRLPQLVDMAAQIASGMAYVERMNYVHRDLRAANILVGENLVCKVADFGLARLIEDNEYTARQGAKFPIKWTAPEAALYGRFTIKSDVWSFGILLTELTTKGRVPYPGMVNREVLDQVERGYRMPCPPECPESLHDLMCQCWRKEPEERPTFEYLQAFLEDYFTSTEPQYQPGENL
Chain of GSK3α (P49840 whole entry): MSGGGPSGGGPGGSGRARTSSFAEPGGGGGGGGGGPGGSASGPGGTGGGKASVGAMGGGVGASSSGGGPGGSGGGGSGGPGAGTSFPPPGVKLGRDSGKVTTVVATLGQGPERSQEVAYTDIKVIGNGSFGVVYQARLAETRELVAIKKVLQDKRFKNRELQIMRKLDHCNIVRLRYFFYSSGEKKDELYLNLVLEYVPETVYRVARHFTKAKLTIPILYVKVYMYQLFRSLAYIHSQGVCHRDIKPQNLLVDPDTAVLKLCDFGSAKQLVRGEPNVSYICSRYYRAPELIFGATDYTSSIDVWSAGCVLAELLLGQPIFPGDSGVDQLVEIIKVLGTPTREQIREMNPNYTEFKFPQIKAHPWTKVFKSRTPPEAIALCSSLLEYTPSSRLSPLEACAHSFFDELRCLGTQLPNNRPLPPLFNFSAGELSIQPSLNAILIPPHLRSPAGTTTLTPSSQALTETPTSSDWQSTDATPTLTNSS

`Cc1n[nH]c2ccc(Nc3nccc(Oc4ccc(NC(=O)Nc5cc(C(C)(C)C)nn5-c5ccc(OCCN6CCOCC6)cc5)c5ccccc45)n3)cc12` [Example 72]: the IC50 stood at 165 nM in series [1]; 1.7 nM in series [2]; 3 nM against Syk; 2 nM against cSrc; 13 nM at p38 MAPKα; 2290 nM against GSK3α. Besides, the EC50 in series [3] came to 1.6 nM. Besides, the “MTT Assay Cell viability at time point in d-U937 cells 4 h” value in the series with d-U937 cells was “−ve (−ve and +ve indicate that the value is below and above respectively, the no significant effect threshold, defined as 30% inhibition at 1 μg/mL at the time point indicated.)”. The “MTT Assay Cell viability at time point in d-U937 cells 24 h” value in the series on d-U937 cells is “−ve (−ve and +ve indicate that the value is below and above respectively, the no significant effect threshold, defined as 30% inhibition at 1 μg/mL at the time point indicated.)”.

Take `Cc1ccc(-n2nc(C(C)(C)C)cc2NC(=O)Nc2ccc(Oc3ccnc(Nc4ccc5c(c4)OCO5)n3)c3ccccc23)cc1` [Example 33, 1-(4-((2-(benzo[d][1,3]dioxol-5-ylamino)pyrimidin-4-yl)oxy)naphthalen-1-yl)-3-(3-(tert-butyl)-1-(p-tolyl)-1H-pyrazol-5-yl)urea]: the concentration for half-maximal inhibition (IC50) in series [1] amounted to 2.7 nM; in series [2], 3.3 nM; against Syk, 671 nM; at cSrc, 23 nM; on p38 MAPKα, 369 nM; at GSK3α it was 5140 nM. For the same compound, the EC50 in series [3] was 3.8 nM. Also, the “MTT Assay Cell viability at time point in d-U937 cells 4 h” value in the series on d-U937 cells was “−ve (−ve and +ve indicate that the value is below and above respectively, the no significant effect threshold, defined as 30% inhibition at 1 μg/mL at the time point indicated.)”. The “MTT Assay Cell viability at time point in d-U937 cells 24 h” value in the series with d-U937 cells is “−ve (−ve and +ve indicate that the value is below and above respectively, the no significant effect threshold, defined as 30% inhibition at 1 μg/mL at the time point indicated.)”.

For the compound `Cc1ccc(-n2nc(C(C)(C)C)cc2NC(=O)Nc2ccc(Oc3ccnc(Nc4cnc5[nH]ccc5c4)n3)c3ccccc23)cc1` [Example 32, 1-(4-((2-((1H-pyrrolo[2,3-b]pyridin-5-yl)amino)pyrimidin-4-yl)oxy)naphthalen-1-yl)-3-(3-(tert-butyl)-1-(p-tolyl)-1H-pyrazol-5-yl)urea], the IC50 is 0.6 nM in series [2], 79 nM on p38 MAPKα and > 1600 nM at GSK3α. In addition, in series [3], the EC50 turned out to be 1.7 nM. The “MTT Assay Cell viability at time point in d-U937 cells 4 h” value in the series on d-U937 cells is “−ve (−ve and +ve indicate that the value is below and above respectively, the no significant effect threshold, defined as 30% inhibition at 1 μg/mL at the time point indicated.)”. For the same compound, the “MTT Assay Cell viability at time point in d-U937 cells 24 h” value with d-U937 cells was “−ve (−ve and +ve indicate that the value is below and above respectively, the no significant effect threshold, defined as 30% inhibition at 1 μg/mL at the time point indicated.)”.

Turning to `Cc1ccc(-n2nc(C(C)(C)C)cc2NC(=O)Nc2ccc(Oc3ccnc(Nc4cccc5[nH]ncc45)n3)c3ccccc23)cc1` [Example 21], the IC50 in series [1] was 3 nM; in series [2] it was 5 nM; on Syk it was 182 nM; at GSK3α, > 16000 nM. In addition, the EC50 in series [3] was determined as 1.7 nM. Also, in the series on d-U937 cells, the “MTT Assay Cell viability at time point in d-U937 cells 4 h” value was “−ve (−ve and +ve indicate that the value is below and above respectively, the no significant effect threshold, defined as 30% inhibition at 1 μg/mL at the time point indicated.)”. Further, in the series on d-U937 cells, the “MTT Assay Cell viability at time point in d-U937 cells 24 h” value was “−ve (−ve and +ve indicate that the value is below and above respectively, the no significant effect threshold, defined as 30% inhibition at 1 μg/mL at the time point indicated.)”.

With `Cc1cc(Nc2nccc(Oc3ccc(NC(=O)Nc4cc(C(C)(C)C)nn4-c4ccc(OCCN5CCOCC5)nc4)c4ccccc34)n2)cc2cn[nH]c12` [Example 91, 1-(3-(tert-butyl)-1-(6-(2-morpholinoethoxy)pyridin-3-yl)-1H-pyrazol-5-yl)-3-(4-((2-((7-methyl-1H-indazol-5-yl)amino)pyrimidin-4-yl)oxy)naphthalen-1-yl)urea], the IC50 in series [1] was found to be 1.9 nM; in series [2] it was 1.6 nM; at Syk it was 1 nM; at cSrc, 1 nM; against p38 MAPKα, 20 nM; against GSK3α it was 1210 nM. Moreover, the “MTT Assay Cell viability at time point in d-U937 cells 4 h” value with d-U937 cells was “−ve (−ve and +ve indicate that the value is below and above respectively, the no significant effect threshold, defined as 30% inhibition at 1 μg/mL at the time point indicated.)”. In addition, in the series on d-U937 cells, the “MTT Assay Cell viability at time point in d-U937 cells 24 h” value was “−ve (−ve and +ve indicate that the value is below and above respectively, the no significant effect threshold, defined as 30% inhibition at 1 μg/mL at the time point indicated.)”.

As a reminder, the IC50 is the concentration that inhibits the measured activity by half.
